The structures appear in SMILES notation.

Sequence of AM2 S31 (wild-type serine at position 31 in the M2 protein), influenza virus A/Udorn/72 (P0DOF5 whole entry, looked up): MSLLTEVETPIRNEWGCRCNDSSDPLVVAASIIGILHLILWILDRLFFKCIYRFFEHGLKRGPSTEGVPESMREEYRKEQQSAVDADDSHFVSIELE

The first test has as its target AM2 S31 (wild-type serine at position 31 in the M2 protein), influenza virus A/Udorn/72 (Influenza A virus, UniProt P0DOF5). Briefly: cell-based. Particulars: 100 uM; Xenopus oocytes; activity range class; read-out: S31 OOcyte Inhibition at 100 uM (%).
For orientation: inhibition means the change of the read-out against control, counted positive when it falls. As to `Cc1cc(CNC23CC4CC(CC(C4)C2)C3)no1` [Example 95a, N-((5-methylisoxazol-3-yl)methyl)adamantan-1-amine], the inhibition at 100 µM was 31 to 95%.

Take `Cc1nc(CNC23CC4CC(CC(C4)C2)C3)no1` [Example 96a, N-((5-methyl-1,2,4-oxadiazol-3-yl)methyl)adamantan-1-amine]: the inhibition at 100 µM was in the range of 31 to 95%. As for `Cc1ccc(C(C)NC23CC4CC(CC(C4)C2)C3)s1` (stereo not drawn) [Example 97a, N-(1-(5-methylthiophen-2-yl)ethyl)adamantan-1-amine], the inhibition at 100 µM is 0 to 30%. Same read-out and setting: the same measure for `CCc1ccc(CNC23CC4CC(CC(C4)C2)C3)s1` [Example 98a, N-((5-ethylthiophen-2-yl)methyl)adamantan-1-amine]: 31 to 95%; for `Cc1nc(CNC23CC4CC(CC(C4)C2)C3)c[nH]1` [Example 99a, N-((2-methyl-1H-imidazol-4-yl)methyl)adamantan-1-amine]: 0 to 30%; for `O=[N+]([O-])c1ccc(CNC23CC4CC(CC(C4)C2)C3)s1` [Example 100a, N-((5-nitrothiophen-2-yl)methyl)adamantan-1-amine]: 31 to 95%. On the same count and under the same terms, as for `CC(C)(C)c1cc(CNC23CC4CC(CC(C4)C2)C3)[nH]n1` [Example 101a, N-((3-(tert-butyl)-1H-pyrazol-5-yl)methyl)adamantan-1-amine], the figure is 0 to 30%; as for `CC(C)c1nc(CNC23CC4CC(CC(C4)C2)C3)no1` [Example 102a, N-((5-isopropyl-1,2,4-oxadiazol-3-yl)methyl)adamantan-1-amine], 0 to 30%; as for `CC(C)(C)c1nc(CNC23CC4CC(CC(C4)C2)C3)no1` [Example 103a, N-((5-(tert-butyl)-1,2,4-oxadiazol-3-yl)methyl)adamantan-1-amine], 0 to 30%.

On to `Brc1ncc(CNC23CC4CC(CC(C4)C2)C3)s1` [Example 104a, N-((2-bromothiazol-5-yl)methyl)adamantan-1-amine], for which the inhibition at 100 µM lay in the range of 0 to 30%. In the case of `Brc1csc(CNC23CC4CC(CC(C4)C2)C3)c1` [Example 105a, N-((4-bromothiophen-2-yl)methyl)adamantan-1-amine], the inhibition at 100 µM is 31 to 95%. As for `c1c(CNC23CC4CC(CC(C4)C2)C3)noc1CN1CCOCC1` [Example 106a, N-((5-(morpholinomethyl)isoxazol-3-yl)methyl)adamantan-1-amine], the inhibition at 100 µM was 0 to 30%. The same measure, in the same setting: as for `c1c(CNC23CC4CC(CC(C4)C2)C3)noc1C1CC1` [Example 107a, N-((5-cyclopropylisoxazol-3-yl)methyl)adamantan-1-amine], the figure is 0 to 30%; as for `c1cc(C2CC2)sc1CNC12CC3CC(CC(C3)C1)C2` [Example 108a, N-((5-cyclopropylthiophen-2-yl)methyl)adamantan-1-amine], 0 to 30%. Still for that read-out and setting: the same measure for `C1CCC(c2nc(CNC34CC5CC(CC(C5)C3)C4)no2)C1` [Example 109a, N-((5-cyclopentyl-1,2,4-oxadiazol-3-yl)methyl)adamantan-1-amine]: 0 to 30%; for `COc1ccc(-c2cc(CNC34CC5CC(CC(C5)C3)C4)no2)cc1` [Example 110a, N-((5-(4-methoxyphenyl)isoxazol-3-yl)methyl)adamantan-1-amine]: 0 to 30%. Same read-out and setting: as for `CSc1ccc(-c2ccc(CNC34CC5CC(CC(C5)C3)C4)s2)cc1` [Example 112a, N-((5-(4-(methylthio)phenyl)thiophen-2-yl)methyl)adamantan-1-amine], the figure is 0 to 30%; as for `COc1ccc(-c2ccc(CNC34CC5CC(CC(C5)C3)C4)s2)cc1` [Example 113a, N-((5-(4-methoxyphenyl)thiophen-2-yl)methyl)adamantan-1-amine], 0 to 30%.

Still in this test, the particulars now being: Table 1; 100 uM; Xenopus oocytes, pH 5.5, -20 mV; read-out: S31 OOcyte Inhibition at 100 uM (%).
As for `c1cc(CNC23CC4CC(CC(C4)C2)C3)c2cc[nH]c2c1` [Example 96, Adamantan-1-yl-(1H-indol-4-ylmethyl)-amine], the inhibition at 100 µM lay within 31 to 95%. The same measure, in the same setting: the same measure for `Oc1c(CNC23CC4CC(CC(C4)C2)C3)ccc2ccccc12` [Example 97, 2-(Adamantan-1-ylaminomethyl)-naphthalen-1-ol]: 31 to 95%. On the same count and under the same terms, the same measure for `c1ccc2nc(CNC34CC5CC(CC(C5)C3)C4)ccc2c1` [Example 98, Adamantan-1-yl-quinolin-2-ylmethyl-amine]: 31 to 95%; for `Oc1ccc(CNC2C3CC4CC(C3)CC2C4)cc1` (stereo not drawn) [Example 99, 4-(Adamantan-2-ylaminomethyl)-phenol]: 31 to 95%; for `Oc1ccc(CNC2C3CC4CC(C3)CC2C4)c(O)c1` (stereo not drawn) [Example 100, 4-(Adamantan-2-ylaminomethyl)-benzene-1,3-diol]: 31 to 95%.

Turning to `Oc1ccc(CNC2C3CC4CC(C3)CC2C4)cc1O` (stereo not drawn) [Example 101, 4-(Adamantan-2-ylaminomethyl)-benzene-1,2-diol], the inhibition at 100 µM lay in the range of 31 to 95%. Same read-out and setting: the same measure for `CC(NC1C2CC3CC(C2)CC1C3)c1ccc(O)cc1O` (stereo not drawn) [Example 102, 4-[1-(Adamantan-2-ylamino)-ethyl]-benzene-1,3-diol]: 31 to 95%. Consider `CSc1ccc(CNC2C3CC4CC(C3)CC2C4)cc1` (stereo not drawn) [Example 103, Adamantan-2-yl-(4-methylsulfanyl-benzyl)-amine], for which the inhibition at 100 µM lay within 0 to 30%. Take `OC1CCN(C2C3CC4CC(C3)CC2C4)CC1` (stereo not drawn) [Example 104, 1-Adamantan-2-yl-piperidin-4-ol]: the inhibition at 100 µM lay in the range of 0 to 30%.

As to `c1c(CNC2C3CC4CC(C3)CC2C4)nc2n1CCS2` (stereo not drawn) [Example 105, Adamantan-2-yl-(2,3-dihydro-imidazo[2,1-b]thiazol-6-ylmethyl)-amine], the inhibition at 100 µM was 31 to 95%. Same read-out and setting: as for `Cc1nn2cc(CNC3C4CC5CC(C4)CC3C5)nc2s1` (stereo not drawn) [Example 106, Adamantan-2-yl-(2-methyl-imidazo[2,1-b][1,3,4]thiadiazol-6-ylmethyl)-amine], the figure is 0 to 30%; as for `c1cn2cc(CNC3C4CC5CC(C4)CC3C5)nc2s1` (stereo not drawn) [Example 107, Adamantan-2-yl-imidazo[2,1-b]thiazol-6-ylmethyl-amine], 31 to 95%.

As for `CC1(C)CCC(NCc2ccc(O)cc2O)CC1` [Example 108, 4-[(4,4-Dimethyl-cyclohexylamino)-methyl]-benzene-1,3-diol], the inhibition at 100 µM was in the range of 31 to 95%. Still for that read-out and setting: as for `CC(C)(C)C1CCC(NCc2ccc(O)cc2O)CC1` (stereo not drawn) [Example 109, 4-[(4-tert-Butyl-cyclohexylamino)-methyl]-benzene-1,3-diol], the figure is 31 to 95%. The same measure, in the same setting: the same measure for `Oc1ccc(CNC23CC4CCC(CC(C4)C2)C3)c(O)c1` [Example 110, 4-(Tricyclo[4.3.1.13,8]undec-1-ylaminomethyl)-benzene-1,3-diol]: 31 to 95%; for `Oc1ccc(CNC23CC4CC(CC2C4)C3)c(O)c1` [Example 111, 4-[(Hexahydro-2,5-methano-pentalen-3a-ylamino)-methyl]-benzene-1,3-diol]: 31 to 95%. The same measure, in the same setting: the same measure for `CC(C)(C)CC(C)(C)NCc1ccc(O)cc1O` [Example 112, 4-[(1,1,3,3-Tetramethyl-butylamino)-methyl]-benzene-1,3-diol]: 31 to 95%; for `C[Si](C)(C)CCCNCc1ccc(O)cc1O` [Example 113, 4-[(3-Trimethylsilanyl-propylamino)-methyl]-benzene-1,3-diol]: 31 to 95%.

The values are drawn from patent publication US9884832B2 (priority 2011, dated 2018).
